In ChEMBL document CHEMBL2150989, “Effect of phospholipid-based formulations of Boswellia serrata extract on the solubility, permeability, and absorption of the individual boswellic acid constituents present” (J Nat Prod, 2012):
Values after ≈ are worked out from the molar mass of the structure shown.

Columns and labels:
[1] = Solubility of the compound in fed state simulated intestinal fluid at compound to Lipoid S100 ratio 1:3 after 3 hrs by HPLC analysis; assay type: physicochemical
[2] = Solubility of the compound in water at pH 6.5; assay type: physicochemical
[3] = Solubility of the compound in fasted state simulated intestinal fluid at compound to Lipoid S100 ratio 1:1 after 3 hrs by HPLC analysis in presence of 10:1 molar ratio of Lipoid S100 to tween 80; assay type: physicochemical
[4] = Solubility of the compound in fasted state simulated intestinal fluid at compound to Lipoid S100 ratio 1:1 after 3 hrs by HPLC analysis in presence of 5:1 molar ratio of Lipoid S100 to tween 80; assay type: physicochemical
[5] = Solubility of the compound in fasted state simulated intestinal fluid at compound to Lipoid S100 ratio 1:1 after 3 hrs by HPLC analysis in presence of 3:1 molar ratio of Lipoid S100 to tween 80; assay type: physicochemical
[6] = Solubility of the compound in fasted state simulated intestinal fluid at compound to Lipoid S100 ratio 1:3 after 3 hrs by HPLC analysis in presence of 10:1 molar ratio of Lipoid S100 to tween 80; assay type: physicochemical
[7] = Solubility of the compound in fasted state simulated intestinal fluid at compound to Lipoid S100 ratio 1:3 after 3 hrs by HPLC analysis in presence of 5:1 molar ratio of Lipoid S100 to tween 80; assay type: physicochemical
[8] = Solubility of the compound in fasted state simulated intestinal fluid at compound to Lipoid S100 ratio 1:3 after 3 hrs by HPLC analysis in presence of 3:1 molar ratio of Lipoid S100 to tween 80; assay type: physicochemical
Caco-2 = experiment: Permeability from apical to basolateral side of human Caco2 cells at compound to Lipoid S100 ratio 1:3 in presence of 5:1 molar ratio of Lipoid S100 to tween 80; assay type: ADME, cell-based; conditions: BLD = below limit of detection
[9] = Permeability from apical to basolateral side of human Caco2 cells assessed as mass balance at compound, Lipoid S100 and tween 80 ratio 1:1:1; assay type: ADME, cell-based; conditions: Caco-2, read-out: permeability
[10] = Permeability from apical to basolateral side of human Caco2 cells assessed as mass balance at compound to Lipoid S100 ratio 1:1; assay type: ADME, cell-based; conditions: Caco-2, read-out: permeability
[11] = Permeability from apical to basolateral side of human Caco2 cells assessed as mass balance at compound, Lipoid S100 and vitamin E-TPGS ratio 1:2:1; assay type: ADME, cell-based; conditions: Caco-2, read-out: permeability
[12] = Permeability from apical to basolateral side of human Caco2 cells assessed as mass balance at compound to Lipoid S100 ratio 1:3 in presence of 5:1 molar ratio of Lipoid S100 to tween 80; assay type: ADME, cell-based; conditions: Caco-2, read-out: permeability
[13] = Permeability from apical to basolateral side of human Caco2 cells assessed as mass balance at compound to Lipoid S100 ratio 1:3; assay type: ADME, cell-based; conditions: Caco-2, read-out: permeability
[14] = Permeability from apical to basolateral side of human Caco2 cells assessed as mass balance at 5 mg/mL; assay type: ADME, cell-based; conditions: Caco-2, read-out: permeability
[15] = Permeability from apical to basolateral side of human Caco2 cells assessed as mass balance at compound, Lipoid S100 and vitamin E-TPGS ratio 1:1:1; assay type: ADME, cell-based; conditions: Caco-2, read-out: permeability
[16] = Permeability from apical to basolateral side of human Caco2 cells assessed as mass balance at compound, Lipoid S100 and gelucire 44/14 ratio 1:1:1; assay type: ADME, cell-based; conditions: Caco-2, read-out: permeability
[17] = Permeability from apical to basolateral side of human Caco2 cells assessed as mass balance at compound, Lipoid S100 and pluronic f68 ratio 1:1:1; assay type: ADME, cell-based; conditions: Caco-2, read-out: permeability
[18] = Permeability from apical to basolateral side of human Caco2 cells assessed as mass balance at compound, Lipoid S100 and pluronic f127 ratio 1:1:1; assay type: ADME, cell-based; conditions: Caco-2, read-out: permeability
[19] = Solubility of the compound in modified fasted state simulated intestinal fluid at 5 mg/mL after 3 hrs by HPLC analysis; assay type: physicochemical
[20] = Solubility of the compound in HBSS buffer containing 4% bovine serum albumin at 5 mg/mL after 3 hrs by HPLC analysis; assay type: physicochemical
[21] = Solubility of the compound in fasted state simulated intestinal fluid at compound, Lipoid S100 and pluronic f127 ratio 1:1:1 after 3 hrs by HPLC analysis; assay type: physicochemical
[22] = Apparent permeability from apical to basolateral side of human Caco2 cells at compound, Lipoid S100 and pluronic f127 ratio 1:1:1 using modified fasted state simulated intestinal fluid; assay type: ADME, cell-based; conditions: Caco-2
[23] = Apparent permeability from apical to basolateral side of human Caco2 cells at compound, Lipoid S100 and pluronic f127 ratio 1:1:1 using modified fed state simulated intestinal fluid; assay type: ADME, cell-based; conditions: Caco-2
[24] = Apparent permeability from apical to basolateral side of human Caco2 cells at compound, Lipoid S100 and pluronic f127 ratio 1:1:1 using HBSS buffer; assay type: ADME, cell-based; conditions: Caco-2
Plasma [25] = experiment: Plasma concentration in rat at 240 mg/kg, po administered using compound, Lipoid S100 and pluronic f127 ratio 1:1:1 formulation relative to non-formulated compound after 2 hrs; assay type: ADME, organism-based; design: dose 240 mg/kg, route oral; conditions: in vivo
Plasma [26] = experiment: Plasma concentration in rat at 240 mg/kg, po administered using compound, Lipoid S100 and pluronic f127 ratio 1:1:1 formulation relative to non-formulated compound after 8 hrs; assay type: ADME, organism-based; design: dose 240 mg/kg, route oral; conditions: in vivo
Brain [27] = experiment: Drug level in rat brain at 240 mg/kg, po; assay type: ADME, organism-based; design: dose 240 mg/kg, route oral; conditions: in vivo
Brain [28] = experiment: Drug level in rat brain at 240 mg/kg, po administered using compound, Lipoid S100 and pluronic f127 ratio 1:1:1 formulation; assay type: ADME, organism-based; design: dose 240 mg/kg, route oral; conditions: in vivo
[29] = Solubility of the compound in water at 5 mg/mL after 3 hrs by HPLC analysis; assay type: physicochemical
[30] = Solubility of the compound in fasted state simulated intestinal fluid at 5 mg/mL after 3 hrs by HPLC analysis; assay type: physicochemical
[31] = Solubility of the compound in fed state simulated intestinal fluid at 5 mg/mL after 3 hrs by HPLC analysis; assay type: physicochemical
[32] = Solubility of the compound in water at compound to Lipoid S100 ratio 1:1 after 3 hrs by HPLC analysis; assay type: physicochemical
[33] = Solubility of the compound in fasted state simulated intestinal fluid at compound to Lipoid S100 ratio 1:1 after 3 hrs by HPLC analysis; assay type: physicochemical
[34] = Solubility of the compound in fed state simulated intestinal fluid at compound to Lipoid S100 ratio 1:1 after 3 hrs by HPLC analysis; assay type: physicochemical
[35] = Solubility of the compound in water at compound to Lipoid S100 ratio 1:3 after 3 hrs by HPLC analysis; assay type: physicochemical
[36] = Solubility of the compound in fasted state simulated intestinal fluid at compound to Lipoid S100 ratio 1:3 after 3 hrs by HPLC analysis; assay type: physicochemical
Plasma [37] = experiment: Plasma concentration in rat at 240 mg/kg, po administered using compound, Lipoid S100 and pluronic f127 ratio 1:1:1 formulation; assay type: ADME, organism-based; design: dose 240 mg/kg, route oral; conditions: in vivo
[38] = Ratio drug level in brain to plasma of rat at 240 mg/kg, po after 8 hrs; assay type: ADME, organism-based; design: dose 240 mg/kg, route oral; conditions: brain and plasma, read-out: BPR
[39] = Ratio drug level in brain to plasma of rat at 240 mg/kg, po administered using compound, Lipoid S100 and pluronic f127 ratio 1:1:1 formulation after 8 hrs; assay type: ADME, organism-based; design: dose 240 mg/kg, route oral; conditions: read-out: BPR
Plasma [40] = experiment: Plasma concentration in rat at 240 mg/kg, po administered using compound, Lipoid S100 and pluronic f127 ratio 1:1:1 formulation relative to non-formulated compound after 4 to 6 hrs; assay type: ADME, organism-based; design: dose 240 mg/kg, route oral; conditions: in vivo
Prostaglandin E synthase = target: T1, Prostaglandin E synthase (Homo sapiens, UniProt O14684); experiment: Inhibition of mPGES1
T1 sequence (O14684 whole entry): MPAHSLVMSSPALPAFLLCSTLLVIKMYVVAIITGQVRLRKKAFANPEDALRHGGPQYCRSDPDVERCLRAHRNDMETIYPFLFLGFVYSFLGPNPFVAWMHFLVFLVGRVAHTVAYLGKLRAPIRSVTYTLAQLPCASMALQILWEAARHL

Structure (SMILES) | solubility at 3 h [1] | solubility [2] | solubility at 3 h [3] | solubility at 3 h [4] | solubility at 3 h [5] | solubility at 3 h [6] | solubility at 3 h [7] | solubility at 3 h [8] | permeability (Caco-2) | recovery [9] | recovery [10] | recovery [11] | recovery [12] | recovery [13] | recovery at 5 mg/mL [14] | recovery [15] | recovery [16] | recovery [17] | Drug uptake (Brain [27]) | Drug uptake (Brain [28]) | other results
C[C@H]1[C@H](C)CC[C@]2(C)CC[C@]3(C)C(=CC(=O)[C@@H]4[C@@]5(C)CC[C@@H](O)[C@](C)(C(=O)O)[C@@H]5CC[C@]43C)[C@H]12 [11-KETO BOSWELLIC ACID] | 183 µg/mL | 73.1 µg/mL (≈ 155 µM) | 78.2 µg/mL | 109 µg/mL | 164 µg/mL | 246 µg/mL | 293 µg/mL | 400 µg/mL | BLD | 96.3% | 93.9% | 99.8% | 102% | 96% | 101% | 101% | 92% | 90.1% | 11.6 ng/g | 13.6 ng/g | recovery [18]: 99.9%; solubility at 3 h [19]: 17 µg/mL (≈ 36.1 µM); solubility at 3 h [20]: 17.5 µg/mL (≈ 37.1 µM); solubility at 3 h [21]: 395 µg/mL; Papp A→B [22]: 3.7 ×10⁻⁶ cm/s; Papp A→B [23]: 3.2 ×10⁻⁶ cm/s; Papp A→B [24]: 2.9 ×10⁻⁶ cm/s; fold change (FC) (Plasma [25]): 26; fold change (FC) (Plasma [26]): 6; solubility at 3 h [29]: 1.16 µg/mL (≈ 2.46 µM); solubility at 3 h [30]: 15.9 µg/mL (≈ 33.8 µM); solubility at 3 h [31]: 73.1 µg/mL (≈ 155 µM); solubility at 3 h [32]: 5.18 µg/mL; solubility at 3 h [33]: 124 µg/mL; solubility at 3 h [34]: 252 µg/mL; solubility at 3 h [35]: 192 µg/mL; solubility at 3 h [36]: 151 µg/mL
CC(=O)O[C@@H]1CC[C@@]2(C)[C@@H](CC[C@]3(C)[C@@H]2C(=O)C=C2[C@@H]4[C@@H](C)[C@H](C)CC[C@]4(C)CC[C@]23C)[C@@]1(C)C(=O)O [AKBA] | 35.8 µg/mL | > 60 µg/mL | 13.4 µg/mL | 18.2 µg/mL | 27.6 µg/mL | 44.7 µg/mL | 59.5 µg/mL | 69.5 µg/mL | BLD | 93.3% | 88.3% | 98% | 104% | 96.4% | 95.2% | 98.8% | 90.7% | 87.8% | 37.5 ng/g | 203.8 ng/g | recovery [18]: 101%; solubility at 3 h [21]: 65.3 µg/mL; Papp A→B [22]: 3.1 ×10⁻⁶ cm/s; Papp A→B [23]: 2.8 ×10⁻⁶ cm/s; Papp A→B [24]: 2.5 ×10⁻⁶ cm/s; fold change (FC) (Plasma [25]): 14; fold change (FC) (Plasma [26]): 6; concentration (Plasma [37]): 1700 nM; Kp at 8 h [38]: 0.07; Kp at 8 h [39]: 2.2; solubility at 3 h [29]: 0.2 µg/mL (≈ 0.39 µM); solubility at 3 h [30]: 3.05 µg/mL (≈ 5.95 µM); solubility at 3 h [31]: 13.2 µg/mL (≈ 25.8 µM); solubility at 3 h [32]: 0.87 µg/mL; solubility at 3 h [33]: 24.2 µg/mL; solubility at 3 h [34]: 48 µg/mL; solubility at 3 h [35]: 51.4 µg/mL; solubility at 3 h [36]: 29.7 µg/mL
C[C@H]1[C@H](C)CC[C@]2(C)CC[C@]3(C)C(=CC[C@@H]4[C@@]5(C)CC[C@@H](O)[C@](C)(C(=O)O)[C@@H]5CC[C@]43C)[C@H]12 [BOSWELLIC ACID] |  |  |  |  |  |  |  |  |  |  |  |  |  |  |  |  |  |  | 1066.6 ng/g | 5908.2 ng/g | fold change (FC) (Plasma [40]): 26; IC50 (Prostaglandin E synthase): 5 µM; Kp at 8 h [38]: 0.2; Kp at 8 h [39]: 5.5
